Data: the supplement of paper PMC10307832

What was measured:
Experiment in all cases: relative viability (nuclei count vs DMSO), 5 days (fraction); higher = more cells survive
YM155 + Navitoclax = compound: COCC[n+]1c2c(n(Cc3cnccn3)c1C)C(=O)c1ccccc1C2=O [YM155] + CC1(C)CCC(c2ccc(Cl)cc2)=C(CN2CCN(c3ccc(C(=O)NS(=O)(=O)c4ccc(N[C@H](CCN5CCOCC5)CSc5ccccc5)c(S(=O)(=O)C(F)(F)F)c4)cc3)CC2)C1 [Navitoclax] (partner 0.5 µM)
Summary of the method: (§1)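 Values are medians from duplicate plates. Each reflects relative viability, defined as the nuclei count of treated wells over that of vehicle wells. Lung cancer cell lines in 1536-well plates were pin-tool dosed one day after seeding with one drug alone or with a fixed anchor-drug dose plus five library-drug doses (not always all listed) in √10 steps, then fixed, stained and imaged at 4× after 5 days.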

Quizartinib + Phenformin = compound: CC(C)(C)c1cc(NC(=O)Nc2ccc(-c3cn4c(n3)sc3cc(OCCN5CCOCC5)ccc34)cc2)no1 [Quizartinib] + N=C(N)NC(=N)NCCc1ccccc1 [Phenformin] (partner 250 µM)
Summary of the method: as §1

Quizartinib + Trametinib = compound: CC(C)(C)c1cc(NC(=O)Nc2ccc(-c3cn4c(n3)sc3cc(OCCN5CCOCC5)ccc34)cc2)no1 [Quizartinib] + CC(=O)Nc1cccc(-n2c(=O)n(C3CC3)c(=O)c3c(Nc4ccc(I)cc4F)n(C)c(=O)c(C)c32)c1 [Trametinib] (partner 0.02 µM)
Summary of the method: as §1

Quizartinib + Decitabine = compound: CC(C)(C)c1cc(NC(=O)Nc2ccc(-c3cn4c(n3)sc3cc(OCCN5CCOCC5)ccc34)cc2)no1 [Quizartinib] + Nc1ncn([C@H]2C[C@H](O)[C@@H](CO)O2)c(=O)n1 [Decitabine] (partner 2 µM)
Summary of the method: as §1

Cell Line | relative viability (YM155 + Navitoclax; first compound 0.002 µM) | relative viability (YM155 + Navitoclax; first compound 0.006325 µM) | relative viability (YM155 + Navitoclax; first compound 0.02 µM) | relative viability (YM155 + Navitoclax; first compound 0.06325 µM) | relative viability (Quizartinib + Phenformin; first compound 0.001 µM) | relative viability (Quizartinib + Phenformin; first compound 0.003162 µM) | relative viability (Quizartinib + Phenformin; first compound 0.01 µM) | relative viability (Quizartinib + Phenformin; first compound 0.03162 µM) | relative viability (Quizartinib + Phenformin; first compound 0.1 µM) | relative viability (Quizartinib + Trametinib; first compound 0.001 µM) | relative viability (Quizartinib + Trametinib; first compound 0.003162 µM) | relative viability (Quizartinib + Trametinib; first compound 0.03162 µM) | relative viability (Quizartinib + Trametinib; first compound 0.1 µM) | relative viability (Quizartinib + Decitabine; first compound 0.001 µM) | relative viability (Quizartinib + Decitabine; first compound 0.003162 µM) | relative viability (Quizartinib + Decitabine; first compound 0.03162 µM) | relative viability (Quizartinib + Decitabine; first compound 0.1 µM) | relative viability (Quizartinib + Trametinib; first compound 0.01 µM) | relative viability (Quizartinib + Decitabine; first compound 0.01 µM)
HCC-827 | 1.03 | 1.11 | 1.01 | 0.992 | 0.372 | 0.385 | 0.44 | 0.402 | 0.404 | 0.535 | 0.531 | 0.509 | 0.572 | 0.291 | 0.358 | 0.313 | 0.334 |  | 
LCLC-97TM1 | 0.319 | 0.394 | 0.391 | 0.376 | 0.396 | 0.379 | 0.421 | 0.464 | 0.375 | 0.158 | 0.186 | 0.216 | 0.184 | 0.225 | 0.253 | 0.218 | 0.21 | 0.191 | 0.237
NCI-H441 | 0.56 | 0.633 | 0.554 | 0.403 | 0.831 | 0.807 | 0.787 |  | 0.958 | 0.35 | 0.563 | 0.368 | 0.456 | 0.236 | 0.247 | 0.238 | 0.278 | 0.45 | 0.213
NCI-H838 | 1.04 | 1.21 | 1.22 | 0.791 | 0.442 | 0.692 | 0.498 | 0.607 | 0.329 | 0.516 | 0.515 | 0.514 | 0.367 | 0.418 | 0.48 | 0.466 | 0.388 | 0.466 | 0.478
NCI-H1437 | 1.07 | 1.08 | 1.09 | 1.01 | 0.274 | 0.277 | 0.294 | 0.208 | 0.172 | 0.458 | 0.482 | 0.49 | 0.346 | 0.402 | 0.54 | 0.536 | 0.499 | 0.492 | 0.567
LXF-289 | 0.94 | 0.949 | 0.957 | 0.87 | 0.485 | 0.496 | 0.529 | 0.497 | 0.539 | 0.613 | 0.692 | 0.702 | 0.622 | 0.347 | 0.321 | 0.432 | 0.42 | 0.709 | 0.427
LU99A | 0.753 | 0.729 | 0.756 | 0.677 | 0.774 | 0.78 | 0.904 | 0.533 | 0.248 | 0.485 | 0.503 | 0.583 | 0.518 | 0.923 | 0.918 | 0.895 | 0.625 | 0.554 | 1.02
HOP-62 | 0.97 | 0.969 | 0.979 | 1.11 | 0.624 | 0.625 | 0.84 | 0.662 | 0.666 | 0.33 | 0.367 | 0.383 | 0.304 | 0.215 | 0.219 | 0.227 | 0.213 | 0.399 | 0.217
NCI-H1915 | 0.804 | 0.79 | 0.792 | 0.822 | 0.345 | 0.374 | 0.408 | 0.353 | 0.38 | 0.28 | 0.31 | 0.29 | 0.313 | 0.23 | 0.252 | 0.263 | 0.267 | 0.331 | 0.279
SW 1573 | 1.05 | 0.959 | 1.04 | 0.555 | 0.355 | 0.369 | 0.397 |  | 0.367 | 0.594 | 0.47 |  | 0.655 | 0.513 | 0.476 |  | 0.625 | 0.711 | 0.67
HCC-44 | 0.983 | 1.04 | 0.988 | 0.914 | 0.203 | 0.323 |  | 0.169 | 0.261 | 0.892 | 1.05 | 1.05 | 1.03 | 0.864 | 0.798 | 0.996 | 0.855 | 1.03 | 0.905
HARA | 1.11 | 1.14 | 1.13 | 1.14 |  | 0.453 | 0.489 | 0.445 | 0.386 | 0.508 | 0.715 | 0.555 | 0.459 | 0.456 | 0.518 | 0.522 | 0.703 | 0.626 | 0.743
HCC-366 | 1.08 | 1.04 | 0.989 | 0.843 | 0.615 | 0.549 | 0.577 | 0.601 | 0.547 | 0.314 | 0.383 | 0.326 | 0.346 | 0.313 | 0.334 | 0.331 | 0.314 | 0.294 | 0.352
SK-MES-1 | 1.3 | 1.36 | 1.28 | 1.07 | 0.593 | 0.636 | 0.677 |  | 0.612 | 0.587 | 0.542 | 0.478 | 0.512 | 0.414 | 0.325 |  | 0.322 | 0.553 | 0.446
HCC-15 | 0.66 | 0.673 | 0.72 | 0.706 |  | 0.461 | 0.396 |  | 0.436 | 0.403 | 0.387 | 0.326 | 0.364 | 0.57 | 0.651 | 0.521 | 0.615 | 0.409 | 0.612
NCI-H1650 | 1.23 | 1.08 | 0.835 | 0.23 | 0.418 | 0.585 | 0.382 |  | 0.417 | 0.608 | 0.662 |  | 0.564 | 0.345 | 0.364 |  | 0.393 | 0.556 | 0.458
NCI-H1666 | 0.991 |  | 0.996 | 0.861 | 0.581 | 0.433 | 0.569 | 0.568 | 0.54 | 0.856 | 0.746 | 0.79 | 0.772 | 0.649 | 0.723 | 0.717 | 0.783 | 0.888 | 0.777
EMC-BAC-2 | 1.12 | 1.24 | 1.09 | 1.13 | 0.446 | 0.493 | 0.552 |  | 0.525 | 0.811 | 0.899 |  | 0.857 | 0.812 | 0.975 |  | 0.996 | 0.865 | 1.04
